Data on 22 compounds can be found in patent publication US11161837B2, “Benzofuran derivatives for the treatment of hepatitis C” (BRISTOL-MYERS SQUIBB COMPANY, priority 2016, dated 2021).

Molecules are shown by their SMILES.

The test system of the first assay is genotype 1b (Con-1) HCV replicon in Huh-7 cells. As to the kind of experiment: HCV replicon luciferase assay. It is filed as cell-based. Particulars: 1b replicon, Huh-7, Renilla luciferase, 3 days incubation. The protocol:
The cell lines used to evaluate compounds consist of a human hepatocyte derived cell line (Huh-7) that constitutively expresses a genotype 1b (Con-1) HCV replicon or a genotype 1b (Con-1) HCV replicon with an asparagine replacing the cysteine at amino acid 316, or a genotype 2a (JFH-1) replicon, containing a Renilla luciferase reporter gene. These cells were maintained in Dulbecco's modified Eagle medium (DMEM) containing 10% FBS, 100 U/mL penicillin/streptomycin and 1.0 mg/mL G418.
HCV Replicon Luciferase Assay.
To evaluate compound efficacy, titrated compounds were transferred to sterile 384-well tissue culture treated plates, and the plates were seeded with HCV replicon cells (50 μL at a density of 2.4×10^3 cells/well) in DMEM containing 4% FBS (final DMSO concentration at 0.5%). After 3 days incubation at 37° C., cells were analyzed for Renilla Luciferase activity using the EnduRen substrate (Promega cat # E6485) according to the manufacturer's directions. Briefly, the EnduRen substrate was diluted in DMEM and then added to the plates to a final concentration of 7.5 μM. The plates were incubated for at least 1 h at 37° C. then read on a Viewlux Imager (PerkinElmer) using a luminescence program. The 50% effective concentration (EC50) was calculated using the four-parameter logistic formula noted above.
Regarding `CCCc1cc2oc(-c3ccc(F)cc3)c(C(=O)NC)c2cc1-c1cccc(C(=O)NC2(C)CC(OC(F)F)C2)c1` (single isomer, unassigned) [Example 55b, 5-(3-((3-(Difluoromethoxy)-1-methylcyclobutyl)carbamoyl)phenyl)-2-(4-fluorophenyl)-N-methyl-6-propylbenzofuran-3-carboxamide], a half-maximal response (EC50) required 30 nM. On the same count and under the same terms, as for `CCOc1cc2oc(-c3ccc(F)cc3)c(C(=O)NC)c2cc1-c1cccc(C(=O)NC2(c3ncccn3)CC(OC(F)F)C2)c1` (single isomer, unassigned) [Example 67a, 5-(3-((3-(Difluoromethoxy)-1-(pyrimidin-2-yl)cyclobutyl)carbamoyl)phenyl)-6-ethoxy-2-(4-fluorophenyl)-N-methylbenzofuran-3-carboxamide], the figure is 30 nM; as for `CNC(=O)c1c(-c2ccc(F)cc2)oc2cc(CCC(F)(F)F)c(-c3cc(C(=O)NC4(C)CC(OC(F)F)C4)c(OC)cc3C)cc12` (single isomer, unassigned) [Example 53b, 5-(5-((3-(Difluoromethoxy)-1-methylcyclobutyl)carbamoyl)-4-methoxy-2-methylphenyl)-2-(4-fluorophenyl)-N-methyl-6-(3,3,3-trifluoropropyl)benzofuran-3-carboxamide], 60 nM. Same read-out and setting: to `CCCc1cc2oc(-c3ccc(F)cc3)c(C(=O)NC)c2cc1-c1cc(C(=O)NC2(C)CC(OC(F)F)C2)c(OC)cc1C` (single isomer, unassigned) [Example 57b, 5-(5-((3-(Difluoromethoxy)-1-methylcyclobutyl)carbamoyl)-4-methoxy-2-methylphenyl)-2-(4-fluorophenyl)-N-methyl-6-propylbenzofuran-3-carboxamide] belongs 70 nM; to `CNC(=O)c1c(-c2ccc(F)cc2)oc2cc(CCC(F)(F)F)c(-c3cc(C(=O)NC4(c5ncccn5)CC(OC(F)(F)F)C4)c(OC)cc3C)cc12` (single isomer, unassigned) [Example 46b, 2-(4-Fluorophenyl)-5-(4-methoxy-2-methyl-5-((1-(pyrimidin-2-yl)-3-(trifluoromethoxy)cyclobutyl)carbamoyl)phenyl)-N-methyl-6-(3,3,3-trifluoropropyl)benzofuran-3-carboxamide], 80 nM; to `CCCc1cc2oc(-c3ccc(F)cc3)c(C(=O)NC)c2cc1-c1ccc(F)c(C(=O)NC2(C)CC(OC(F)F)C2)c1` (single isomer, unassigned) [Example 61b, 5-(3-((3-(Difluoromethoxy)-1-methylcyclobutyl)carbamoyl)-4-fluorophenyl)-2-(4-fluorophenyl)-N-methyl-6-propylbenzofuran-3-carboxamide], 20 nM. The same measure, in the same setting: as for `CNC(=O)c1c(-c2ccc(F)cc2)oc2cc(CCC(F)(F)F)c(-c3cccc(C(=O)NC4(c5ncccn5)CC(OC(F)F)C4)c3)cc12` (single isomer, unassigned) [Example 29b], the figure is 30 nM.

Staying with this assay, now noted: Hepatitis C virus, Huh-7, 72 h, 1b replicon, Huh-7, Renilla luciferase, 3 days incubation.
In turn, `CCCc1cc2oc(-c3ccc(F)cc3)c(C(=O)NC)c2cc1-c1ccc(F)c(C(=O)NC2(c3ncccn3)CC(OC(F)(F)F)C2)c1` (single isomer, unassigned) [Example 48a, 5-(4-Fluoro-3-((1-(pyrimidin-2-yl)-3-(trifluoromethoxy)cyclobutyl)carbamoyl)phenyl)-2-(4-fluorophenyl)-N-methyl-6-propylbenzofuran-3-carboxamide] showed an EC50 of 20 nM. On the same count and under the same terms, to `CCCc1cc2oc(-c3ccc(F)cc3)c(C(=O)NC)c2cc1-c1cc(C(=O)NC2(c3ncccn3)CC(OC(F)F)C2)c(OC)cc1C` (stereo not shown) [Example 39, 5-(5-((3-(Difluoromethoxy)-1-(pyrimidin-2-yl)cyclobutyl)carbamoyl)-4-methoxy-2-methylphenyl)-2-(4-fluorophenyl)-N-methyl-6-propylbenzofuran-3-carboxamide] belongs 20 nM; to `CNC(=O)c1c(-c2ccc(F)cc2)oc2cc(CCC(F)(F)F)c(-c3cc(C(=O)NC4(C)CC(OC(F)F)C4)c(OC)cc3C)cc12` (single isomer, unassigned) [Example 53a, 5-(5-((3-(Difluoromethoxy)-1-methylcyclobutyl)carbamoyl)-4-methoxy-2-methylphenyl)-2-(4-fluorophenyl)-N-methyl-6-(3,3,3-trifluoropropyl)benzofuran-3-carboxamide], 60 nM; to `CNC(=O)c1c(-c2ccc(F)cc2)oc2cc(CCC(F)(F)F)c(-c3cccc(C(=O)NC4(C)CC(OC(F)F)C4)c3)cc12` (single isomer, unassigned) [Example 59a, 5-(3-((3-(Difluoromethoxy)-1-methylcyclobutyl)carbamoyl)phenyl)-2-(4-fluorophenyl)-N-methyl-6-(3,3,3-trifluoropropyl)benzofuran-3-carboxamide], 30 nM. Compound `CCCc1cc2oc(-c3ccc(F)cc3)c(C(=O)NC)c2cc1-c1ccc(OC)c(C(=O)NC2(c3ncccn3)CC(OC(F)F)C2)c1` (stereo not shown) [Example 37] gave an EC50 of 6.08 nM. On to `CNC(=O)c1c(-c2ccc(F)cc2)oc2cc(CCC(F)(F)F)c(-c3cc(C(=O)NC4(c5ncccn5)CC(OC(F)F)C4)c(OC)cc3C)cc12` (stereo not shown) [Example 41, 5-(5-((3-(Difluoromethoxy)-1-(pyrimidin-2-yl)cyclobutyl)carbamoyl)-4-methoxy-2-methylphenyl)-2-(4-fluorophenyl)-N-methyl-6-(3,3,3-trifluoropropyl)benzofuran-3-carboxamide], for which it took 20 nM to reach a half-maximal effect (EC50).

As to `CCN(c1cc2oc(-c3ccc(F)cc3)c(C(=O)NC)c2c(F)c1-c1cccc(C(=O)NC2(c3ncccn3)CC(OC(F)F)C2)c1)S(C)(=O)=O` (stereo not shown) [Example 21, 5-(3-((3-(Difluoromethoxy)-1-(pyrimidin-2-yl)cyclobutyl)carbamoyl)phenyl)-6-(N-ethylmethylsulfonamido)-4-fluoro-2-(4-fluorophenyl)-N-methylbenzofuran-3-carboxamide], the EC50 was 2.23 nM. In turn, `CCN(c1cc2oc(-c3ccc(F)cc3)c(C(=O)NC)c2c(F)c1-c1ccc(OC)c(C(=O)NC2(c3ncccn3)CC(F)C2)c1)S(C)(=O)=O` (stereo not shown) [Example 26, 6-(N-ethylmethylsulfonamido)-4-fluoro-5-(3-((3-fluoro-1-(pyrimidin-2-yl)cyclobutyl)carbamoyl)-4-methoxyphenyl)-2-(4-fluorophenyl)-N-methylbenzofuran-3-carboxamide] registered an EC50 of 2.25 nM.

Compound `CNC(=O)c1c(-c2ccc(F)cc2)oc2cc(CCC(F)(F)F)c(-c3ccc(F)c(C(=O)NC4(C)CC(OC(F)F)C4)c3)cc12` (single isomer, unassigned) [Example 63a, 5-(3-((3-(Difluoromethoxy)-1-methylcyclobutyl)carbamoyl)-4-fluorophenyl)-2-(4-fluorophenyl)-N-methyl-6-(3,3,3-trifluoropropyl)benzofuran-3-carboxamide] registered an EC50 of 10 nM. The same measure, in the same setting: as for `CCN(c1cc2oc(-c3ccc(F)cc3)c(C(=O)NC)c2cc1-c1cccc(C(=O)NC2(c3ncccn3)CC(OC(F)F)C2)c1)S(C)(=O)=O` (stereo not shown) [Example 24, 5-(3-((3-(difluoromethoxy)-1-(pyrimidin-2-yl)cyclobutyl)carbamoyl)phenyl)-6-(N-ethylmethylsulfonamido)-2-(4-fluorophenyl)-N-methylbenzofuran-3-carboxamide], the figure is 2.2 nM; as for `CNC(=O)c1c(-c2ccc(F)cc2)oc2cc(CCC(F)(F)F)c(-c3ccc(F)c(C(=O)NC4(c5ncccn5)CC(OC(F)(F)F)C4)c3)cc12` (single isomer, unassigned) [Example 49a, 5-(4-Fluoro-3-((1-(pyrimidin-2-yl)-3-(trifluoromethoxy)cyclobutyl)carbamoyl)phenyl)-2-(4-fluorophenyl)-N-methyl-6-(3,3,3-trifluoropropyl)benzofuran-3-carboxamide], 20 nM; as for `CCOc1cc2oc(-c3ccc(F)cc3)c(C(=O)NC)c2cc1-c1cccc(C(=O)NC2(c3ncon3)CC(OC(F)F)C2)c1` (stereo not shown) [Example 70, 5-(3-((3-(Difluoromethoxy)-1-(1,2,4-oxadiazol-3-yl)cyclobutyl)carbamoyl)phenyl)-6-ethoxy-2-(4-fluorophenyl)-N-methylbenzofuran-3-carboxamide], 6.47 nM. Still for that read-out and setting: to `CCCc1cc2oc(-c3ccc(F)cc3)c(C(=O)NC)c2cc1-c1ccc(F)c(C(=O)NC2(C)CC(OC(F)F)C2)c1` (single isomer, unassigned) [Example 61a, 5-(3-((3-(Difluoromethoxy)-1-methylcyclobutyl)carbamoyl)-4-fluorophenyl)-2-(4-fluorophenyl)-N-methyl-6-propylbenzofuran-3-carboxamide] belongs 20 nM.

The compound `CCCc1cc2oc(-c3ccc(F)cc3)c(C(=O)NC)c2cc1-c1ccc(F)c(C(=O)NC2(c3ncccn3)CC(OC(F)F)C2)c1` (stereo not shown) [Example 32, 5-(3-((3-(Difluoromethoxy)-1-(pyrimidin-2-yl)cyclobutyl)carbamoyl)-4-fluorophenyl)-2-(4-fluorophenyl)-N-methyl-6-propylbenzofuran-3-carboxamide] returned an EC50 of 9.02 nM.

Compound `CCCc1cc2oc(-c3ccc(F)cc3)c(C(=O)NC)c2cc1-c1cccc(C(=O)NC2(C)CC(OC(F)F)C2)c1` (single isomer, unassigned) [Example 55a, 5-(3-((3-(Difluoromethoxy)-1-methylcyclobutyl)carbamoyl)phenyl)-2-(4-fluorophenyl)-N-methyl-6-propylbenzofuran-3-carboxamide] showed an EC50 of 30 nM.
